{"source": "paper PMC5513037", "about": "“Examining the influence of specificity ligands and ATP-competitive ligands on the overall effectiveness of bivalent kinase inhibitors” (Proteome Science, 2017)", "experiment_in_all_cases": "KAM-matrix competition in K562 lysate;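 for 0.001 uM KAM: median log10 fold change of treatment over DMSO control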;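 for 0.01 uM KAM: median log10 fold change of treatment over DMSO control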;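 for 0.1 uM KAM: median log10 fold change of treatment over DMSO control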;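 for 1 uM KAM: median log10 fold change of treatment over DMSO control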;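 for 10 uM KAM: median log10 fold change of treatment over DMSO control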", "assay_type_in_all_cases": "binding", "key": {"IKBKE": {"target": "T1, IKBKE (Homo sapiens, UniProt Q14164)", "T1 construct": "endogenous in cells; host or cells: K562 cells (lysate)", "T1 sequence (Q14164 1-716)": "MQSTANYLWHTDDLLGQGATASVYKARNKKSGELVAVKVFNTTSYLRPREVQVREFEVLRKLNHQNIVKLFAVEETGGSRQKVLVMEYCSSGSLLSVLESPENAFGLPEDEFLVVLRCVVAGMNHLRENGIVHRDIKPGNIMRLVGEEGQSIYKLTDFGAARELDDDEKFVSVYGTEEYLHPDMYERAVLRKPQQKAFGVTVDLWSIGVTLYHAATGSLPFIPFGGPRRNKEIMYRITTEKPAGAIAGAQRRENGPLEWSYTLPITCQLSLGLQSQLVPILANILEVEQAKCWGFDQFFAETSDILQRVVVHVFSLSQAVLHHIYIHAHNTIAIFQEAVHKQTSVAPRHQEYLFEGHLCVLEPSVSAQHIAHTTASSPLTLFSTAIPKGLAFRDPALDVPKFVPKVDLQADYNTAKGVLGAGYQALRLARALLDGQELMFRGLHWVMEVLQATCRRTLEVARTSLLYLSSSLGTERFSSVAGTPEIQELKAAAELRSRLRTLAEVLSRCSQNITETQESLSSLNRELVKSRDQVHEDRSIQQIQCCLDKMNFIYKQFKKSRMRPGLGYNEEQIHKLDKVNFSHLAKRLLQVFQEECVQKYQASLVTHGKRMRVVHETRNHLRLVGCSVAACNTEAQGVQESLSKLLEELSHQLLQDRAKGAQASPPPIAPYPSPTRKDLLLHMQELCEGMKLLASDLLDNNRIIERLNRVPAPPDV", "protocol": "(§1) Supplement 12953_2017_125_MOESM1_ESM.zip/MS_Supp Info.xlsx, sheet \"KAM\" | column: 10 uM KAM; 1 uM KAM; 0.1 uM KAM; 0.01 uM KAM; 0.001 uM KAM; RB50"}, "MAP3K9": {"target": "T2, MAP3K9 (Homo sapiens, UniProt P80192)", "T2 construct": "endogenous in cells; host or cells: K562", "T2 sequence (P80192 whole entry)": "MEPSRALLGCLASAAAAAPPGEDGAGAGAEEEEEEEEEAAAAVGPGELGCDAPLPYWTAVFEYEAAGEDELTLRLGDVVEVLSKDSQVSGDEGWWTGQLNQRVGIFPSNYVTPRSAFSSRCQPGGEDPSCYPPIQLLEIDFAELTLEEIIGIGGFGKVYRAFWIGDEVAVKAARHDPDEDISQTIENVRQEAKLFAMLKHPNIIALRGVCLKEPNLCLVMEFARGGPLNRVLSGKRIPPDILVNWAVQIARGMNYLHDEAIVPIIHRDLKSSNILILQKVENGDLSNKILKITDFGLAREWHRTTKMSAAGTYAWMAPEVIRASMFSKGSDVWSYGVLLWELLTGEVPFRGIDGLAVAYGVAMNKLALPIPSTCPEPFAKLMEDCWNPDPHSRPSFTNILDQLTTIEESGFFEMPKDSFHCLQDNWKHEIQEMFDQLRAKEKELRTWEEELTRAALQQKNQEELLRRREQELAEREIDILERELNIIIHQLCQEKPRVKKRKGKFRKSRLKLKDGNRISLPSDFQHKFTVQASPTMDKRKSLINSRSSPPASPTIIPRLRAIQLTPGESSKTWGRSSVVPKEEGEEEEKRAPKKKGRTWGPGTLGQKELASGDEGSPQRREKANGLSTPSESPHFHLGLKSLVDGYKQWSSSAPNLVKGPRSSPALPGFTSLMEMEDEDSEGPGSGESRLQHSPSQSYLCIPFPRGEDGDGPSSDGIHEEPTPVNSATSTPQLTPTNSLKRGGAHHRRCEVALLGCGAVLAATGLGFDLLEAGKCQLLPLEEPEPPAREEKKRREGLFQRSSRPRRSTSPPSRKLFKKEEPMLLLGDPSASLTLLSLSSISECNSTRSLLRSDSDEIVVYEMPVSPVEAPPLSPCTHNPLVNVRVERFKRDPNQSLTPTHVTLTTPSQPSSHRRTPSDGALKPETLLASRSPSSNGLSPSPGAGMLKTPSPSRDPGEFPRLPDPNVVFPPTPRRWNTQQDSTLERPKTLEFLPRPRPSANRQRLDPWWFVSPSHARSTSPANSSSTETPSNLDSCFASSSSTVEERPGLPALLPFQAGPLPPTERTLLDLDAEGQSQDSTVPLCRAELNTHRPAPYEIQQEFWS", "protocol": "as §1"}, "MERTK": {"target": "T3, MERTK (Homo sapiens, UniProt Q12866)", "T3 construct": "endogenous in cells; host or cells: K562", "T3 sequence (Q12866 21-999)": "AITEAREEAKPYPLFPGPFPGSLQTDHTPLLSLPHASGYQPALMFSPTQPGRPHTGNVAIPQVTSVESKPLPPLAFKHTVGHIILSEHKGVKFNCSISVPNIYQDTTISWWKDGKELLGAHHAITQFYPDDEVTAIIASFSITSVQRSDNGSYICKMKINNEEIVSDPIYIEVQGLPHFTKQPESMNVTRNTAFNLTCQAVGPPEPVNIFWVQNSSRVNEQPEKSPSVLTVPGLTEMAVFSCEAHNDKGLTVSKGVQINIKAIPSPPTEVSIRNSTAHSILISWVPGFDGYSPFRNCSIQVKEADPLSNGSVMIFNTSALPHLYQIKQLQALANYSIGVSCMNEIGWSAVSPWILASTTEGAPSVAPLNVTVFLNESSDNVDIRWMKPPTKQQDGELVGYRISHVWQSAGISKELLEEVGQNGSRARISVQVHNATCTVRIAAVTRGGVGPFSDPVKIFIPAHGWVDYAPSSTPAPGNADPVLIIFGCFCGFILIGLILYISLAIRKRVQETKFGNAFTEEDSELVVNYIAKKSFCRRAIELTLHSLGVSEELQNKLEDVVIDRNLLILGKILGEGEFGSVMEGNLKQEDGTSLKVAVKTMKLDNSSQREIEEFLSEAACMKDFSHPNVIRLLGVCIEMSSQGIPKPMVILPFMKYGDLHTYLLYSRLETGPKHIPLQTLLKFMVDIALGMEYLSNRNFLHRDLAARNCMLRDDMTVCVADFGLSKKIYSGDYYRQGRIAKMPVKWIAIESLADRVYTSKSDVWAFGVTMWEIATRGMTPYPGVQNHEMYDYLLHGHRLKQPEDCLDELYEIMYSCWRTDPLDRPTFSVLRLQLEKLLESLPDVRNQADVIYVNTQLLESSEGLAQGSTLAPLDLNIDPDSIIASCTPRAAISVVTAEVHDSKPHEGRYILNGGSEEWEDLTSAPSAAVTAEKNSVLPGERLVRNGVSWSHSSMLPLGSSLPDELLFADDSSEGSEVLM", "protocol": "as §1"}, "PRPF4B": {"target": "T4, PRPF4B (Homo sapiens, UniProt Q13523)", "T4 construct": "endogenous in cells; host or cells: K562", "protocol": "as §1"}, "ROR2": {"target": "T5, ROR2 (Homo sapiens, UniProt Q01974)", "T5 construct": "endogenous in cells; host or cells: K562", "T5 sequence (Q01974 34-943)": "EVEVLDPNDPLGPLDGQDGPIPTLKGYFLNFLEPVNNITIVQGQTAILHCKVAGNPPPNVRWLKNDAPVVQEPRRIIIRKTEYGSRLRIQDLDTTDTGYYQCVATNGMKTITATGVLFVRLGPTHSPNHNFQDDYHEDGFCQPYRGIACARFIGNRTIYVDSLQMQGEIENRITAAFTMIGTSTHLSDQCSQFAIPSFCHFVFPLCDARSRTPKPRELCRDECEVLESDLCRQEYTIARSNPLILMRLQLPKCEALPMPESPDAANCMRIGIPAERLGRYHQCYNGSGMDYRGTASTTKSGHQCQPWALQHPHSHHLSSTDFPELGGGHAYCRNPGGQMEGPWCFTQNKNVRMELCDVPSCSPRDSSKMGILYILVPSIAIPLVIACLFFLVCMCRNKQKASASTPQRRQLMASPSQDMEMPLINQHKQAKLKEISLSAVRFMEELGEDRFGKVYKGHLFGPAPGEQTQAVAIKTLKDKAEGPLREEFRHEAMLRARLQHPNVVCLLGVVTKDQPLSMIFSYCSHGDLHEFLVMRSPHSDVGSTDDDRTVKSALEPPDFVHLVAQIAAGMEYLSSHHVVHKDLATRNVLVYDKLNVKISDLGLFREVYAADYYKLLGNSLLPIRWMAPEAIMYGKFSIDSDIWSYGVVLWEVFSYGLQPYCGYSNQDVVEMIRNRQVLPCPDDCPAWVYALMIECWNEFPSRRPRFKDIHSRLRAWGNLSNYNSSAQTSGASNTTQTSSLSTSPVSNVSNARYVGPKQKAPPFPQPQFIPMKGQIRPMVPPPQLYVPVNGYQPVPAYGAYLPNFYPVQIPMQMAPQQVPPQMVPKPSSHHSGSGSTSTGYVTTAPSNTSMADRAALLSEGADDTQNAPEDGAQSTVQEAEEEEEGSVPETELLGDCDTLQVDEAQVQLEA", "protocol": "as §1"}, "WNK1": {"target": "T6, WNK1 (Homo sapiens, UniProt Q9H4A3)", "T6 construct": "endogenous in cells; host or cells: K562", "T6 sequence (Q9H4A3 whole entry)": "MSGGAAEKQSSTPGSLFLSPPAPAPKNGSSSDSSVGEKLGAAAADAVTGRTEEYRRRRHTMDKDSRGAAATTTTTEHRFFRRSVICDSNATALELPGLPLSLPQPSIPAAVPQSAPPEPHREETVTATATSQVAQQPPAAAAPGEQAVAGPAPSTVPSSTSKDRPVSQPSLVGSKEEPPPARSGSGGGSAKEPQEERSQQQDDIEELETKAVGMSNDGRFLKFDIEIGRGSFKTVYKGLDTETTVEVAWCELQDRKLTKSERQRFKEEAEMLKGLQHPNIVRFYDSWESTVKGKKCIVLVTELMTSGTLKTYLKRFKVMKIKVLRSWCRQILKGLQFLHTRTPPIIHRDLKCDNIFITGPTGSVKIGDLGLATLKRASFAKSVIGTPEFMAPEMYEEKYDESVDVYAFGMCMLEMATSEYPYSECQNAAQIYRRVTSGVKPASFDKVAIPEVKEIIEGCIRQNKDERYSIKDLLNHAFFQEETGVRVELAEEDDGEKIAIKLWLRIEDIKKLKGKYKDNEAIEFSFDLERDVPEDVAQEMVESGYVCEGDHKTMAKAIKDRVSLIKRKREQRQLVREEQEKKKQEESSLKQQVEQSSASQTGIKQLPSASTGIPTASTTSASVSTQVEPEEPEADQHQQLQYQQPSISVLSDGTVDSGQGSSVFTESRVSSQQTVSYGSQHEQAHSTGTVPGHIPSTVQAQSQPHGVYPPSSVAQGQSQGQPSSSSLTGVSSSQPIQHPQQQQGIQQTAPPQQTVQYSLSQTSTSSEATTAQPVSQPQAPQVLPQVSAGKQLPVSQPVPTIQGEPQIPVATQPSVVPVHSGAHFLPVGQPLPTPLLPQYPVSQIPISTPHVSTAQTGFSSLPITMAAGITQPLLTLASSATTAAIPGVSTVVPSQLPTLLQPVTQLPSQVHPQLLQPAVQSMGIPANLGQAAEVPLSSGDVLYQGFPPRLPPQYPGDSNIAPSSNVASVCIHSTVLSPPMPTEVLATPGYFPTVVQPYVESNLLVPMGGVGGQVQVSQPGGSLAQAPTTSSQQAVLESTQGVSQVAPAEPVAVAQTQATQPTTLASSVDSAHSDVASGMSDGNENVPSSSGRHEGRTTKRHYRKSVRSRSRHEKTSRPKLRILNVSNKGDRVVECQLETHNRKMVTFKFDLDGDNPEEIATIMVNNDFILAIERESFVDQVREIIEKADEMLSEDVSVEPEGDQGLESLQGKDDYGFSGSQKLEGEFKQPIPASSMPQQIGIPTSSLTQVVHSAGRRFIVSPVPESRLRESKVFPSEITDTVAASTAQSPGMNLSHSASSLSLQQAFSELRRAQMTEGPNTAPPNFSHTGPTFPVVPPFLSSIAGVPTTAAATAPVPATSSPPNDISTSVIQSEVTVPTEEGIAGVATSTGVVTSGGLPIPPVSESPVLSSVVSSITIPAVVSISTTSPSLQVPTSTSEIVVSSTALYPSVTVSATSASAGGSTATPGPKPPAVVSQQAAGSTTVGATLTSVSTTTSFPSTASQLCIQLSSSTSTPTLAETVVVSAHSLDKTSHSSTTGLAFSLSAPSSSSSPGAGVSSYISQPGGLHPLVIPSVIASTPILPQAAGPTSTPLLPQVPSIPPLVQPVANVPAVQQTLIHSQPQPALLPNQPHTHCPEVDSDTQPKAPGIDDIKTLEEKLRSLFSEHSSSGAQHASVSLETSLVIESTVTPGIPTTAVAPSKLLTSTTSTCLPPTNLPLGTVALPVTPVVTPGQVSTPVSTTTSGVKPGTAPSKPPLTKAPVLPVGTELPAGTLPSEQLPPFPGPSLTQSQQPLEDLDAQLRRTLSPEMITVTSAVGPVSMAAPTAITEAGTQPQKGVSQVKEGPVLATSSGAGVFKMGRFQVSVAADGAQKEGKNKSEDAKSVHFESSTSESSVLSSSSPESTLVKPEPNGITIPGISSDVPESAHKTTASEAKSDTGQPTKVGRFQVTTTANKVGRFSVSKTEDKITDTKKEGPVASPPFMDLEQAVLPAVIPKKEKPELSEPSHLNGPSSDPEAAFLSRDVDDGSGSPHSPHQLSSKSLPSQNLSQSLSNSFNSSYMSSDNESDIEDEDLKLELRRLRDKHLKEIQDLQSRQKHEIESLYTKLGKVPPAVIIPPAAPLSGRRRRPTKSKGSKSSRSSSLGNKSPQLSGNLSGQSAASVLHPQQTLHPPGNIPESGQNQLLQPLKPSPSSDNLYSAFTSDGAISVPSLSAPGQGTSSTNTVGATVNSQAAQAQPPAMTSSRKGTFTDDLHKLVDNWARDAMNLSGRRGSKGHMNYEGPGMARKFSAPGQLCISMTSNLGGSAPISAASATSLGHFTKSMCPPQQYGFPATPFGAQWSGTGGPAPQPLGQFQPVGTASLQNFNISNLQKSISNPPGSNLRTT", "protocol": "as §1"}, "[1]": {"details": "read-out: RB50 (the source's name)"}, "[2]": {"details": "KAM 0.001-10 uM, read-out: RB50 (the source's name)"}}}
{"smiles": "N#CCc1ccc(Nc2nc(NCCCN)cc(Nc3cc(C4CC4)[nH]n3)n2)cc1", "note": "[KAM]", "values": [{"measurement": "median Log10 fold change", "setting": "IKBKE; 0.001 uM KAM", "result": -0.04139}, {"measurement": "median Log10 fold change", "setting": "IKBKE; 0.01 uM KAM", "result": -0.01605}, {"measurement": "median Log10 fold change", "setting": "IKBKE; 0.1 uM KAM", "result": -0.1319}, {"measurement": "median Log10 fold change", "setting": "IKBKE; 1 uM KAM", "result": -0.3552}, {"measurement": "median Log10 fold change", "setting": "IKBKE; 10 uM KAM", "result": -0.4826}, {"measurement": "IC50", "setting": "IKBKE; [1]", "result": 823, "unit": "nM"}, {"measurement": "median Log10 fold change", "setting": "MAP3K9; 0.001 uM KAM", "result": -0.03702}, {"measurement": "median Log10 fold change", "setting": "MAP3K9; 0.01 uM KAM", "result": 0.03625}, {"measurement": "median Log10 fold change", "setting": "MAP3K9; 0.1 uM KAM", "result": -0.05744}, {"measurement": "median Log10 fold change", "setting": "MAP3K9; 1 uM KAM", "result": -0.2576}, {"measurement": "median Log10 fold change", "setting": "MAP3K9; 10 uM KAM", "result": -0.4734}, {"measurement": "IC50", "setting": "MAP3K9; [1]", "result": 1800, "unit": "nM"}, {"measurement": "IC50", "setting": "MERTK; [2]", "result": "> 10000", "unit": "nM"}, {"measurement": "0.001 uM KAM", "setting": "MERTK; relative to 0 uM KAM = 0", "result": -0.05728}, {"measurement": "0.01 uM KAM", "setting": "MERTK; relative to 0 uM KAM = 0", "result": -0.0237}, {"measurement": "0.1 uM KAM", "setting": "MERTK; relative to 0 uM KAM = 0", "result": -0.04893}, {"measurement": "1 uM KAM", "setting": "MERTK; relative to 0 uM KAM = 0", "result": -0.1208}, {"measurement": "10 uM KAM", "setting": "MERTK; relative to 0 uM KAM = 0", "result": -0.2454}, {"measurement": "median Log10 fold change", "setting": "PRPF4B; 0.001 uM KAM", "result": -0.03755}, {"measurement": "median Log10 fold change", "setting": "PRPF4B; 0.01 uM KAM", "result": -0.07792}, {"measurement": "median Log10 fold change", "setting": "PRPF4B; 0.1 uM KAM", "result": -0.1894}, {"measurement": "median Log10 fold change", "setting": "PRPF4B; 1 uM KAM", "result": -0.2633}, {"measurement": "median Log10 fold change", "setting": "PRPF4B; 10 uM KAM", "result": -0.4136}, {"measurement": "IC50", "setting": "PRPF4B; [1]", "result": 1400, "unit": "nM"}, {"measurement": "IC50", "setting": "ROR2; [2]", "result": "> 10000", "unit": "nM"}, {"measurement": "0.001 uM KAM", "setting": "ROR2; relative to 0 uM KAM = 0", "result": -0.05631}, {"measurement": "0.01 uM KAM", "setting": "ROR2; relative to 0 uM KAM = 0", "result": -0.02329}, {"measurement": "0.1 uM KAM", "setting": "ROR2; relative to 0 uM KAM = 0", "result": -0.008785}, {"measurement": "1 uM KAM", "setting": "ROR2; relative to 0 uM KAM = 0", "result": -0.03493}, {"measurement": "10 uM KAM", "setting": "ROR2; relative to 0 uM KAM = 0", "result": 0.2477}, {"measurement": "IC50", "setting": "WNK1; [2]", "result": "> 10000", "unit": "nM"}, {"measurement": "0.001 uM KAM", "setting": "WNK1; relative to 0 uM KAM = 0", "result": -0.03013}, {"measurement": "0.01 uM KAM", "setting": "WNK1; relative to 0 uM KAM = 0", "result": -0.03259}, {"measurement": "0.1 uM KAM", "setting": "WNK1; relative to 0 uM KAM = 0", "result": -0.03066}, {"measurement": "1 uM KAM", "setting": "WNK1; relative to 0 uM KAM = 0", "result": 0.00603}, {"measurement": "10 uM KAM", "setting": "WNK1; relative to 0 uM KAM = 0", "result": -0.05865}]}
